Entries after “also recorded” stand apart in the source; their conditions may differ.
System: Kyn levels in BxPC3 cells (kynurenine generated by IDO1)
Assay: Cellular Kyn assay (automated Kyn screening assay)
Assay type: cell-based
Details: for IC50: Homo sapiens, BXPC-3, 48 h, IFN-γ, L-Trp and compounds 48 h, mean ± SD, read-out: IC50 (Kyn assay), reduction of kynurenine levels

Row | Compound | IC50 | further results
1 | CC(C)[C@]12CC(OC(=O)Nc3ccc(I)cc3)[C@]3(CCN(S(=O)(=O)c4ccc(C(C)(C)C)cc4)C3)[C@H]1C2 (stereo partly drawn) [compound 24, (1S,2R,5S)-1'-((4-(tert-butyl)phenyl)sulfonyl)-5-isopropylspiro[bicyclo[3.1.0]hexane-2,3'-pyrrolidin]-3-yl (4-iodophenyl)carbamate] |  | activity in cellular Kyn assay (in words): inactive
2 | CC1(C)[C@H]2C[C@@H]3CN(S(=O)(=O)c4ccc(C5CCCCC5)cc4)C[C@]3(COC(=O)Nc3ccc(I)cc3)[C@@H]1C2 [compound 71, ((3aS,4R,6R,7aS)-2-((4-cyclohexylphenyl)sulfonyl)-5,5-dimethyloctahydro-3aH-4,6-methanoisoindol-3a-yl)methyl (4-iodophenyl)carbamate] | 1.1 ± 0.3 µM | 
3 | CC(C)(C(=O)N1CCOCC1)c1ccc(S(=O)(=O)N2C[C@H]3C[C@H]4C[C@H](C4(C)C)[C@@]3(COC(=O)Nc3ccc(I)cc3)C2)cc1 [compound 86, ((3aS,4R,6R,7aS)-5,5-dimethyl-2-((4-(2-methyl-1-morpholino-1-oxopropan-2-yl)phenyl)sulfonyl)octahydro-3aH-4,6-methanoisoindol-3a-yl)methyl (4-iodophenyl)carbamate] | 7.3 ± 1.4 µM | 
4 | CN(C)C(=O)C(C)(C)c1ccc(S(=O)(=O)N2C[C@H]3C[C@H]4C[C@H](C4(C)C)[C@@]3(COC(=O)Nc3ccc(I)cc3)C2)cc1 [compound 87, ((3aS,4R,6R,7aS)-2-((4-(1-(dimethylamino)-2-methyl-1-oxopropan-2-yl)phenyl)sulfonyl)-5,5-dimethyloctahydro-3aH-4,6-methanoisoindol-3a-yl)methyl (4-iodophenyl)carbamate] | 0.85 ± 0.27 µM | 
5 | CC(C)(C)c1ccc(S(=O)(=O)N2C[C@H]3C[C@H]4C[C@H](C4(C)C)[C@@]3(COC(=O)Nc3ccccc3)C2)cc1 [compound 32, ((3aS,4R,6R,7aS)-2-((4-(tert-butyl)phenyl)sulfonyl)-5,5-dimethyloctahydro-3aH-4,6-methanoisoindol-3a-yl)methyl phenylcarbamate] | 7 ± 1.6 µM | 
6 | CC(C)(C)c1ccc(S(=O)(=O)N2C[C@@H]3C[C@@H]4C[C@@H](C4(C)C)[C@]3(COC(=O)Nc3ccc(I)cc3)C2)cc1 [compound 20, ((3aR,4S,6S,7aR)-2-((4-(tert-butyl)phenyl)sulfonyl)-5,5-dimethyloctahydro-3aH-4,6-methanoisoindol-3a-yl)methyl (4-iodophenyl)carbamate] |  | fold lower activity than 14 (iDeg-2) in Kyn assay: 16 fold
7 | CC(C)(C)c1ccc(S(=O)(=O)N2CC3C[C@H]4C[C@H](C4(C)C)[C@]3(COC(=O)c3ccccc3)C2)cc1 (stereo partly drawn) [compound 15, ((3aR,4R,6R)-2-((4-(tert-butyl)phenyl)sulfonyl)-5,5-dimethyloctahydro-3aH-4,6-methanoisoindol-3a-yl)methyl benzoate] |  | activity in cellular Kyn assay (in words): did not improve activity; also recorded: inactive
8 | CC1(C)[C@H]2C[C@@H]3CN(S(=O)(=O)c4ccccc4)C[C@]3(COC(=O)Nc3ccc(I)cc3)[C@@H]1C2 [compound 65, ((3aS,4R,6R,7aS)-5,5-dimethyl-2-(phenylsulfonyl)octahydro-3aH-4,6-methanoisoindol-3a-yl)methyl (4-iodophenyl)carbamate] | 2.6 ± 0.5 µM | 
9 | CC(C)(C)c1ccc(S(=O)(=O)N2C[C@H]3C[C@H]4C[C@H](C4(C)C)[C@@]3(COC(=O)Nc3ccc(C#CCCO)cc3)C2)cc1 [compound 53, ((3aS,4R,6R,7aS)-2-((4-(tert-butyl)phenyl)sulfonyl)-5,5-dimethyloctahydro-3aH-4,6-methanoisoindol-3a-yl)methyl (4-(4-hydroxybut-1-yn-1-yl)phenyl)carbamate] | 2.5 ± 0.2 µM | 
10 | CC(C)(C)Cc1ccc(S(=O)(=O)N2C[C@H]3C[C@H]4C[C@H](C4(C)C)[C@@]3(COC(=O)Nc3ccc(I)cc3)C2)cc1 [compound 74, ((3aS,4R,6R,7aS)-5,5-dimethyl-2-((4-neopentylphenyl)sulfonyl)octahydro-3aH-4,6-methanoisoindol-3a-yl)methyl (4-iodophenyl)carbamate] | 0.23 ± 0.06 µM | 
11 | COc1ccc(NC(=O)OC[C@]23CN(S(=O)(=O)c4ccc(C(C)(C)C)cc4)C[C@H]2C[C@H]2C[C@@H]3C2(C)C)cc1 [compound 44, ((3aS,4R,6R,7aS)-2-((4-(tert-butyl)phenyl)sulfonyl)-5,5-dimethyloctahydro-3aH-4,6-methanoisoindol-3a-yl)methyl (4-methoxyphenyl)carbamate] | 1.2 ± 0.2 µM | 
12 | CC(C)(C)c1ccc(S(=O)(=O)N2C[C@H]3C[C@H]4C[C@H](C4(C)C)[C@@]3(COC(=O)Nc3ccc(Br)cc3)C2)cc1 [compound 36, ((3aS,4R,6R,7aS)-2-((4-(tert-butyl)phenyl)sulfonyl)-5,5-dimethyloctahydro-3aH-4,6-methanoisoindol-3a-yl)methyl (4-bromophenyl)carbamate] | 0.23 ± 0.05 µM | 
13 | CC1(C)[C@H]2C[C@@H]3CN(S(=O)(=O)c4ccc(-c5ccccc5)cc4)C[C@]3(COC(=O)Nc3ccc(I)cc3)[C@@H]1C2 [compound 70, ((3aS,4R,6R,7aS)-2-([1,1'-biphenyl]-4-ylsulfonyl)-5,5-dimethyloctahydro-3aH-4,6-methanoisoindol-3a-yl)methyl (4-iodophenyl)carbamate] | 0.34 ± 0.17 µM | 
14 | CC1(C)CCC(C)(C)c2cc(S(=O)(=O)N3C[C@H]4C[C@H]5C[C@H](C5(C)C)[C@@]4(COC(=O)Nc4ccc(I)cc4)C3)ccc21 [compound 73, ((3aS,4R,6R,7aS)-5,5-dimethyl-2-((5,5,8,8-tetramethyl-5,6,7,8-tetrahydronaphthalen-2-yl)sulfonyl)octahydro-3aH-4,6-methanoisoindol-3a-yl)methyl (4-iodophenyl)carbamate] | 0.45 ± 0.39 µM | 
15 | COC(=O)CC(C)(C)c1ccc(S(=O)(=O)N2C[C@H]3C[C@H]4C[C@H](C4(C)C)[C@@]3(COC(=O)Nc3ccc(I)cc3)C2)cc1 [compound 90, Methyl 3-(4-(((3aS,4R,6R,7aS)-3a-((((4-iodophenyl)carbamoyl)oxy)methyl)-5,5-dimethyloctahydro-2H-4,6-methanoisoindol-2-yl)sulfonyl)phenyl)-3-methylbutanoate] | 0.032 ± 0.011 µM | 
16 | CC1(C)[C@H]2C[C@@H]3CN(S(=O)(=O)c4ccc([Si](C)(C)C)cc4)C[C@]3(COC(=O)Nc3ccc(I)cc3)[C@@H]1C2 [compound 77, ((3aS,4R,6R,7aS)-5,5-dimethyl-2-((4-(trimethylsilyl)phenyl)sulfonyl)octahydro-3aH-4,6-methanoisoindol-3a-yl)methyl (4-iodophenyl)carbamate] | 0.26 ± 0.09 µM | 
17 | CC1(C)[C@H]2C[C@@H]3CN(S(=O)(=O)c4cccnc4)C[C@]3(COC(=O)Nc3ccc(I)cc3)[C@@H]1C2 [compound 61, ((3aS,4R,6R,7aS)-5,5-dimethyl-2-(pyridin-3-ylsulfonyl)octahydro-3aH-4,6-methanoisoindol-3a-yl)methyl (4-iodophenyl)carbamate] | 6.1 ± 0.9 µM | 
18 | CC1(C)[C@H]2C[C@@H]3CN(S(=O)(=O)c4ccc5ccccc5c4)C[C@]3(COC(=O)Nc3ccc(I)cc3)[C@@H]1C2 [compound 64, ((3aS,4R,6R,7aS)-5,5-dimethyl-2-(naphthalen-2-ylsulfonyl)octahydro-3aH-4,6-methanoisoindol-3a-yl)methyl (4-iodophenyl)carbamate] | 0.4 ± 0.1 µM | 
19 | CC(C)(C)c1ccc(S(=O)(=O)N2C[C@H]3C[C@H]4C[C@H](C4(C)C)[C@@]3(COC(=O)Nc3ccc(O)cc3)C2)cc1 [compound 42, ((3aS,4R,6R,7aS)-2-((4-(tert-butyl)phenyl)sulfonyl)-5,5-dimethyloctahydro-3aH-4,6-methanoisoindol-3a-yl)methyl (4-hydroxyphenyl)carbamate] | > 10 µM | 
20 | CC(C)(C)c1ccc(S(=O)(=O)N2C[C@H]3C[C@H]4C[C@H](C4(C)C)[C@@]3(COC(=O)Nc3ccc(C#N)cc3)C2)cc1 [compound 47, ((3aS,4R,6R,7aS)-2-((4-(tert-butyl)phenyl)sulfonyl)-5,5-dimethyloctahydro-3aH-4,6-methanoisoindol-3a-yl)methyl (4-cyanophenyl)carbamate] | 2.1 ± 0.8 µM | 
21 | CCC(C)(C)c1ccc(S(=O)(=O)N2C[C@H]3C[C@H]4C[C@H](C4(C)C)[C@@]3(COC(=O)Nc3ccc(I)cc3)C2)cc1 [compound 75, ((3aS,4R,6R,7aS)-5,5-dimethyl-2-((4-(tert-pentyl)phenyl)sulfonyl)octahydro-3aH-4,6-methanoisoindol-3a-yl)methyl (4-iodophenyl)carbamate] | 0.19 ± 0.07 µM | 
22 | Cc1ccc(NC(=O)OC[C@]23CN(S(=O)(=O)C4CCCCC4)C[C@H]2C[C@H]2C[C@@H]3C2(C)C)cc1 [compound 55, ((3aS,4R,6R,7aS)-2-(cyclohexylsulfonyl)-5,5-dimethyloctahydro-3aH-4,6-methanoisoindol-3a-yl)methyl p-tolylcarbamate] | 5.1 ± 0.4 µM | 
23 | CCc1ccc(NC(=O)OC[C@]23CN(S(=O)(=O)c4ccc(C(C)(C)C)cc4)C[C@H]2C[C@H]2C[C@@H]3C2(C)C)cc1 [compound 28, ((3aS,4R,6R,7aS)-2-((4-(tert-butyl)phenyl)sulfonyl)-5,5-dimethyloctahydro-3aH-4,6-methanoisoindol-3a-yl)methyl (4-ethylphenyl)carbamate] | 2.9 ± 0.3 µM | 
24 | CC(C)[C@]12C[C@@H](OC(=O)Nc3ccc(I)cc3)[C@]3(CCN(S(=O)(=O)c4ccc(C(C)(C)C)cc4)C3)[C@H]1C2 [compound 23, (1S,2R,3R,5S)-1'-((4-(tert-butyl)phenyl)sulfonyl)-5-isopropylspiro[bicyclo[3.1.0]hexane-2,3'-pyrrolidin]-3-yl (4-iodophenyl) carbamate] |  | activity in cellular Kyn assay (in words): inactive
25 | Cc1ccc(NC(=O)OC[C@]23CN(S(=O)(=O)c4ccc(OC(F)(F)F)cc4)C[C@H]2C[C@H]2C[C@@H]3C2(C)C)cc1 [compound 58, ((3aS,4R,6R,7aS)-5,5-dimethyl-2-((4-(trifluoromethoxy)phenyl)sulfonyl)octahydro-3aH-4,6-methanoisoindol-3a-yl)methyl p-tolylcarbamate] | 3 ± 1.3 µM | 
26 | Cc1ccc(NC(=O)OC[C@]23CN(S(=O)(=O)c4ccc(C(F)(F)F)cc4)C[C@H]2C[C@H]2C[C@@H]3C2(C)C)cc1 [compound 56, ((3aS,4R,6R,7aS)-5,5-dimethyl-2-((4-(trifluoromethyl)phenyl)sulfonyl)octahydro-3aH-4,6-methanoisoindol-3a-yl)methyl p-tolylcarbamate] | 2.5 ± 1.1 µM | 

Source: publication PMC12811658, “Design, Synthesis, and Structural Evolution of Pseudo‐Natural Product IDO1 Inhibitors and Degraders” (Angewandte Chemie (International Ed. in English), 2025)
